Reference: patent publication US20070265256A1, “Phosphodiesterase 10 inhibitors” (priority 2006, published 2007)
pIC50: −log10 of the molar value.

Target: T1, mPDE10A7 (Mus musculus, UniProt Q8CA95)
T1 sequence (Q8CA95 446-763 limits assumed): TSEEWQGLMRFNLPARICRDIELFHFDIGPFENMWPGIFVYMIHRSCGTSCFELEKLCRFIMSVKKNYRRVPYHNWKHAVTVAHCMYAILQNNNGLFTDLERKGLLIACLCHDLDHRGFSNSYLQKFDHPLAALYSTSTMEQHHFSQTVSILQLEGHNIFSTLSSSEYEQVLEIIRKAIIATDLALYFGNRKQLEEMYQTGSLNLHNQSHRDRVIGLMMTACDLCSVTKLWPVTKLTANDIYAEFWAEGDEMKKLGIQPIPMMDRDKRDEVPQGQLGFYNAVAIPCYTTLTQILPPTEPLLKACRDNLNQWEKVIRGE
Test: mPDE10A7 enzyme inhibition (IMAP fluorescence polarization)
Assay type: biochemical
Settings: fluorescein labeled cAMP or cGMP substrate
Method: To analyze the enzyme activity, 5 μL of serial diluted mPDE10A7 containing lysate were incubated with equal volumes of diluted (100-fold) fluorescein labeled cAMP or cGMP for 30 minutes in MDC HE 96-well assay plates at room temperature. Both the enzyme and the substrates were diluted in the following assay buffer: Tris/HCl (pH 8.0) 50 mM, MgCl2 5 mM, 2-mercaptoethanol 4 mM, BSA 0.33 mg/mL. After incubation, the reaction was stopped by adding 20 μL of diluted (400-fold) binding reagents and was incubated for an hour at room temperature. The plates were counted in an Analyst GT (Molecular Devices) for fluorescence polarization. An IMAP Assay kit (Molecular Device) was used to assess enzyme properties of mmPDE10A7. Data were analyzed with SoftMax Pro.
To check the inhibition profile, 10 μL of serial diluted compounds were incubated with 30 μl of diluted PDE enzymes in a 96-well polystyrene assay plate for 30 minutes at room temperature. After incubation, 5 μL of the compound-enzyme mixture were aliquoted into a MDC HE black plate, mixed with 5 μL of 100-fold diluted fluorescein labeled substrates (cAMP or cGMP), and incubated for 30 minutes at room temperature. The reaction was stopped by adding 20 μL of diluted binding reagents and counted in an Analyst GT for fluorescence polarization. The data were analyzed with SoftMax Pro.

Compound	pIC50
COc1cc2nncc(-c3ccc(NCc4cccc(OC(F)(F)F)c4)nc3)c2cc1OC [Cpd 122]	6.73
COc1cc2nncc(-c3ccc(Nc4ccccc4)nc3)c2cc1OC [Cpd 81]	7.05
COc1cc2nncc(-c3ccc(NCCc4ccccn4)nc3)c2cc1OC [Cpd 93]	7.75
COc1cc2nncc(-c3ccc(Nc4ccc(-c5cnco5)cc4)nc3)c2cc1OC [Cpd 118]	7.41
CNC1CCN(c2ccc(-c3cnnc4cc(OC)c(OC)cc34)cn2)CC1 [Cpd 79]	6.44
CCOC(=O)c1noc2ccc(-c3cnnc4cc(OC)c(OC)cc34)cc12 [Cpd 52]	7.31
COc1cc2nncc(-c3ccc(N4CCC(F)(F)CC4)nc3)c2cc1OC [Cpd 56]	7.53
COc1cc2nncc(-c3ccc(N4CCC(OC)C4)nc3)c2cc1OC (stereo not drawn) [Cpd 55]	7.98
CCOC(=O)c1n[nH]c2ccc(-c3cnnc4cc(OC)c(OC)cc34)cc12 [Cpd 12, Ethyl 5-(6,7-dimethoxycinnolin-4-yl)-1H-indazole-3-carboxylate]	7.92
COc1cc2nncc(N3CCc4[nH]nc(C(=O)NC5CC5)c4C3)c2cc1OC [Cpd 7, N-cyclopropyl-5-(6,7-dimethoxycinnolin-4-yl)-4,5,6,7-tetrahydro-1H-pyrazolo[4,3-c]pyridine-3-carboxamide]	7.71
COc1cc2nncc(-c3ccc(N4CCC(O)(c5ccccc5)CC4)nc3)c2cc1OC [Cpd 108]	7.67
COc1cc2nncc(-c3cnn(Cc4ccc(-c5ccccc5)cc4)c3)c2cc1OC [Cpd 23, 4-[1-(Biphenyl-4-ylmethyl)-1H-pyrazol-4-yl]-6,7-dimethoxycinnoline]	6.32
COc1cc2nncc(-c3cnn(Cc4ccc(F)cc4)c3)c2cc1OC [Cpd 35, 4-[1-(4-fluorobenzyl)-1H-pyrazol-4-yl]-6,7-dimethoxycinnoline hydroformate]	7.98
COc1cc2nncc(-c3cccc(-c4cnn(C)c4)c3)c2cc1OC [Cpd 5, 6,7-dimethoxy-4-[3-(1-methyl-1H-pyrazol-4-yl)phenyl]cinnoline hydroformate]	7.10
COc1cc2nncc(-c3cnn(Cc4ccc(OC(F)(F)F)cc4)c3)c2cc1OC [Cpd 32, 6,7-dimethoxy-4-{1-[4-(trifluoromethoxy)benzyl]-1H-pyrazol-4-yl}cinnoline]	6.34
COc1cc2nncc(-c3ccc(Nc4cccc(C#N)c4)nc3)c2cc1OC [Cpd 95]	7.06
COc1cc2nncc(N3CCc4c(OCC5CC5)cccc4C3=O)c2cc1OC [Cpd 46]	6.61
COc1cc2nncc(-c3cnn(Cc4ccc(C)cc4)c3)c2cc1OC [Cpd 21, 6,7-Dimethoxy-4-[1-(4-methylbenzyl)-1H-pyrazol-4-yl]cinnoline]	7.36
COc1cc2nncc(-c3cnn(Cc4ccccc4C#N)c3)c2cc1OC [Cpd 28, 2-{[4-(6,7-Dimethoxycinnolin-4-yl)-1H-pyrazol-1-yl]methyl}benzonitrile]	6.99
COc1cc2nncc(-c3cccc(NC(C)=O)c3)c2cc1OC [Cpd 14, N-[3-(6,7-dimethoxycinnolin-4-yl)phenyl]acetamide hydroformate]	7.37
COc1cc2nncc(-c3ccc(NC(C)C)nc3C)c2cc1OC [Cpd 123]	7.73
COC(=O)c1ccc(Cn2cc(-c3cnnc4cc(OC)c(OC)cc34)cn2)cc1 [Cpd 24, Methyl 4-{[4-(6,7-dimethoxycinnolin-4-yl)-1H-pyrazol-1-yl]methyl}benzoate]	7.31
COc1cc2nncc(-c3ccc(NCC4CCN4C(=O)OC(C)(C)C)nc3)c2cc1OC (stereo not drawn) [Cpd 65]	7.18
COCCNc1ccc(-c2cnnc3cc(OC)c(OC)cc23)cn1 [Cpd 62]	7.44

Compound	pIC50
COc1cc2nncc(-c3ccc(CN4CC(C(=O)O)C4)cc3)c2cc1OC [Cpd 101, 1-(4-(6,7-dimethoxycinnolin-4-yl)benzyl)azetidine-3-carboxylic acid]	6.64
COc1cc2nncc(-c3ccc(N4CCn5c(nnc5C(F)(F)F)C4)nc3)c2cc1OC [Cpd 72]	7.16
COc1cc2nncc(N3CCc4cc(N5CCCCC5)ccc4C3=O)c2cc1OC [Cpd 4, 2-(6,7-dimethoxycinnolin-4-yl)-6-piperidin-1-yl-3,4-dihydroisoquinolin-1(2H)-one]	6.78
COc1cc2nncc(-c3ccc(Nc4ccc(N(C)C)cc4)nc3)c2cc1OC [Cpd 88]	6.75
COc1cc2nncc(-c3ccc(NCCN)nc3)c2cc1OC [Cpd 63]	6.21
COc1cc2nncc(-c3cnn(Cc4cccc(C(F)(F)F)c4)c3)c2cc1OC [Cpd 26, 6,7-Dimethoxy-4-{1-[3-(trifluoromethyl)benzyl]-1H-pyrazol-4-yl}cinnoline]	6.74
COc1cc2nncc(-c3cccc(N(C)C)c3)c2cc1OC [Cpd 15, 3-(6,7-Dimethoxycinnolin-4-yl)-N,N-dimethylaniline hydroformate]	7.64
COc1cc2nncc(-c3ccc(OCC4CC4)nc3)c2cc1OC [Cpd 89, 4-(6-(cyclopropylmethoxy)pyridin-3-yl)-6,7-dimethoxycinnoline]	7.47
COc1cc2nncc(-c3cccc(N4CCOCC4)c3)c2cc1OC [Cpd 1, 6,7-dimethoxy-4-(3-morpholin-4-ylphenyl)cinnoline]	7.24
COc1cc2nncc(-c3ccc(N4CCOCC4)nc3)c2cc1OC [Cpd 33, 6,7-Dimethoxy-4-(6-morpholin-4-ylpyridin-3-yl)cinnoline]	7.96
COc1cc2nncc(-c3ccnc(N4CCOCC4)c3F)c2cc1OC [Cpd 42]	7.21
COc1cc2nncc(-c3ccc(C(C)=O)c(F)c3)c2cc1OC [Cpd 100]	6.59
COc1cc2nncc(-c3ccc(Nc4nnc(C5CC5)s4)nc3)c2cc1OC [Cpd 119]	6.59
COc1cc2nncc(-c3ccnc(N4CCN(C)C(=O)C4)c3)c2cc1OC [Cpd 54]	7.25
COc1cc2nncc(-c3ccc(F)c(NC(C)=O)c3)c2cc1OC [Cpd 146]	7.38
COc1cc2nncc(-n3ccc4cc(N5CCOCC5)ccc43)c2cc1OC [Cpd 20, 6,7-dimethoxy-4-(5-morpholin-4-yl-1H-indol-1-yl)cinnoline hydroformate]	6.68
COc1cc2nncc(-c3cccc(C4=NC(C)(C)CO4)c3)c2cc1OC [Cpd 8, 4-[3-(4,4-Dimethyl-4,5-dihydro-1,3-oxazol-2-yl)phenyl]-6,7-dimethoxycinnoline]	7.51
COc1cc2nncc(-c3ccc(OCc4ccc5ccccc5n4)cc3)c2cc1OC [Cpd 68]	6.97
COc1cc2nncc(-c3ccc(Oc4ccccc4)nc3)c2cc1OC [Cpd 87]	6.82
COc1cc2nncc(-c3ccc(NC(C)C)nc3)c2cc1OC [Cpd 59]	8.08
CCS(=O)(=O)c1cccc(-c2cnnc3cc(OC)c(OC)cc23)c1 [Cpd 3, 4-[3-(Ethylsulfonyl)phenyl]-6,7-dimethoxycinnoline]	7.53
COc1cc2nncc(-c3cnc(N4CCN(C)CC4)nc3)c2cc1OC [Cpd 43, 6,7-dimethoxy-4-[2-(4-methylpiperazin-1-yl)pyrimidin-5-yl]cinnoline]	7.70
COc1cc2nncc(-c3cnc(-c4cnc(NC(C)C)c(F)c4)c(F)c3)c2cc1OC [Cpd 115]	6.17
COc1cccc(-n2cc(-c3cnnc4cc(OC)c(OC)cc34)cn2)c1 [Cpd 10, 6,7-Dimethoxy-4-[1-(3-methoxyphenyl)-1H-pyrazol-4-yl]cinnoline hydroformate]	7.17
